The values that follow come from ChEMBL document CHEMBL1212795, “Transferable quinolone resistance in Vibrio cholerae” (2010).

≈ marks a conversion by molar mass, not a printed value.

Test [1] has as its system Escherichia coli. The experiment in a line: Antibacterial activity against azide-resistant Escherichia coli J53 SXT1 transconjugant with qnrVC3 gene expressing Vibrio cholerae 59 strain. Format: functional.
In test [2] the test system is Escherichia coli. The experiment in a line: Antibacterial activity against azide-resistant Escherichia coli J53 TET1 transconjugant with qnrVC3 gene expressing Vibrio cholerae 59 strain. The class given is functional.
Test [3] concerns Escherichia coli. The experiment in a line: Antibacterial activity against azide-resistant Escherichia coli J53 TET2 transconjugant with qnrVC3 gene expressing Vibrio cholerae 59 strain.
The subject of test [4] is Escherichia coli. The test is described as follows: Antibacterial activity against azide-resistant Escherichia coli J53 SXT2 transconjugant with qnrVC3 gene expressing Vibrio cholerae 59 strain.
In test [5] the test system is Escherichia coli. The experiment in a line: Antibacterial activity against azide resistant Escherichia coli J53 transformed with pQE60-qnrVC3 gene Vibrio cholerae 59 strain. The class given is functional.
Test [6] concerns Escherichia coli. The experiment in a line: Antibacterial activity against azide-resistant Escherichia coli J53 containing plasmid pQE60. Format: functional.
The subject of test [7] is Escherichia coli. The test is described as follows: Antibacterial activity against azide-resistant Escherichia coli J53 SXT13-1 transconjugant with qnrVC3 gene expressing Vibrio cholerae 13 strain. Format: functional.

The term MIC denotes the smallest concentration in the dilution series that meets the test's criterion for growth inhibition. A high value points to a less susceptible organism. As to `CC1(C)S[C@@H]2[C@H](NC(=O)[C@H](N)c3ccccc3)C(=O)N2[C@H]1C(=O)O` [AMPICILLIN], the MIC in test [1] amounted to 4 µg/mL (≈ 11.4 µM); in test [2], 6 µg/mL (≈ 17.2 µM); in test [3], 4 µg/mL (≈ 11.4 µM); in test [4], 4 µg/mL (≈ 11.4 µM).

`O=C(O)c1cn(C2CC2)c2cc(N3CCNCC3)c(F)cc2c1=O` [CIPROFLOXACIN]: the MIC in test [1] worked out at 0.047 µg/mL (≈ 0.142 µM); in test [3], 0.064 µg/mL (≈ 0.193 µM).

Consider `C[C@H]1COc2c(N3CCN(C)CC3)c(F)cc3c(=O)c(C(=O)O)cn1c23.C[C@H]1COc2c(N3CCN(C)CC3)c(F)cc3c(=O)c(C(=O)O)cn1c23.O` [LEVOFLOXACIN], for which the MIC stood at 0.19 µg/mL in test [1]; 0.032 µg/mL in test [2]; 0.125 µg/mL in test [3]; 0.19 µg/mL in test [5]; 0.032 µg/mL in test [4]; 0.032 µg/mL in test [6].

`CCn1cc(C(=O)O)c(=O)c2ccc(C)nc21` [NALIDIXIC ACID]: the MIC in test [1] was found to be 3 µg/mL (≈ 12.9 µM); in test [2], 4 µg/mL (≈ 17.2 µM); in test [3] it was 4 µg/mL (≈ 17.2 µM); in test [4] it was 3 µg/mL (≈ 12.9 µM).

As to `CN[C@@H]1[C@H](O[C@H]2[C@H](O[C@H]3[C@H](O)[C@@H](O)[C@H](N=C(N)N)[C@@H](O)[C@@H]3N=C(N)N)O[C@@H](C)[C@]2(O)C=O)O[C@@H](CO)[C@H](O)[C@H]1O` [STREPTOMYCIN], the MIC in test [1], in test [2], in test [3] and in test [4] was greater than 192 µg/mL throughout.

As for `CN(C)[C@@H]1C(O)=C(C(N)=O)C(=O)[C@@]2(O)C(O)=C3C(=O)c4c(O)cccc4[C@@](C)(O)[C@H]3C[C@@H]12` [TETRACYCLINE], the MIC in test [1] came to 64 µg/mL (≈ 144 µM); in test [2], 64 µg/mL (≈ 144 µM); in test [7], 1.5 µg/mL (≈ 3.38 µM); in test [3], 64 µg/mL (≈ 144 µM); in test [4], 64 µg/mL (≈ 144 µM).

For `COc1cc(Cc2cnc(N)nc2N)cc(OC)c1OC` [TRIMETHOPRIM], the MIC in test [1], in test [2], in test [3] and in test [4] was greater than 32 µg/mL in each case.

GENTAMICIN: the MIC in test [1] and in test [2] was 0.75 µg/mL throughout.
